Measurements taken from patent US8557833B2, “Aminopyrimidines useful as kinase inhibitors” (priority 2005, dated 2013).
One block for each molecule: values may come before it.

Experiments:
Assay type in all cases: biochemical
[1] = biological target: N-terminally truncated Abl kinase; test: Abl kinase activity inhibition assay, coupled enzyme; details: read-out: Abl (wild) Ki; 110 μM ATP, 30° C., 21 nM Abl kinase
Description: Final concentrations of the components of the coupled enzyme system were 2.5 mM phosphoenolpyruvate, 200 μM NADH, […] pyruvate kinase and 20 μg/ml lactate dehydrogenase.
An assay stock buffer solution was prepared containing all of the reagents listed above with the exception of ATP and the test compound of interest. […] Rates of reaction were obtained using a Molecular Devices Spectramax plate reader (Sunnyvale, Calif.) over 10 min at 30° C. The Ki values were determined from the residual rate data as a function of inhibitor concentration using nonlinear regression (Prism 3.0, Graphpad Software, San Diego, Calif.).

[2] = biological target: Arg (Abl-2) (Homo sapiens, UniProt P42684); test: Arg (Abl-2) inhibition assay; details: ATP at or close to Km
Sequence of Arg (Abl-2) (P42684 whole entry, species assumed): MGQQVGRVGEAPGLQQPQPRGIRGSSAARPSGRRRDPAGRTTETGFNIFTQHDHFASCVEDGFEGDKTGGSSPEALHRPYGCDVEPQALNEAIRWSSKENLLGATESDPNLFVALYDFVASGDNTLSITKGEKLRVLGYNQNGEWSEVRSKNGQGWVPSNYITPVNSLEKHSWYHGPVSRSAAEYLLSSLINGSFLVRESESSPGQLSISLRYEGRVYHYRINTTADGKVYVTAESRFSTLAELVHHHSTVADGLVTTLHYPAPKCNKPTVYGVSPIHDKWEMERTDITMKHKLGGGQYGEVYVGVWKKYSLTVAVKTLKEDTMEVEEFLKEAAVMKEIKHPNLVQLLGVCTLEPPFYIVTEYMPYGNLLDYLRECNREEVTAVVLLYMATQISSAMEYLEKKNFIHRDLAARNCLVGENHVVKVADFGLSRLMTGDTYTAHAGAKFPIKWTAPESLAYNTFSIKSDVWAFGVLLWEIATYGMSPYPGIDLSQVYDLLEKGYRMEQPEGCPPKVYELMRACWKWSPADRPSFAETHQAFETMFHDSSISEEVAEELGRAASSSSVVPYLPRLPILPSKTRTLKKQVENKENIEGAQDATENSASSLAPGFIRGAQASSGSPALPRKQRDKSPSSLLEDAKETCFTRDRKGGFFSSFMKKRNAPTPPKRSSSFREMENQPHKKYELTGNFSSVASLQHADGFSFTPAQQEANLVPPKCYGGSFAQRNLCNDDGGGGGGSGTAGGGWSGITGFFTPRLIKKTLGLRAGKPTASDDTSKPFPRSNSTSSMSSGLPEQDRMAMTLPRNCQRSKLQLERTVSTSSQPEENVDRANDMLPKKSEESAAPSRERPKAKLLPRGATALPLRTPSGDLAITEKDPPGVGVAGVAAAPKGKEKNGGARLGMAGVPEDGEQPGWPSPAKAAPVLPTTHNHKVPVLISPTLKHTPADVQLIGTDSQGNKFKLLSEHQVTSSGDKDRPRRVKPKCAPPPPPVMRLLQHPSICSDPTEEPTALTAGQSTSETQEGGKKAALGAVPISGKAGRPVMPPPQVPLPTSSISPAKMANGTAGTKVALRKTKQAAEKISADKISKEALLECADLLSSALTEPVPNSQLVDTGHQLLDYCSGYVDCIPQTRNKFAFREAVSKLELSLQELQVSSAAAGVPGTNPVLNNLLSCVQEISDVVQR
Description: (§1) Compound I-1 was screened for its ability to inhibit Arg (Abl-2), FGFR1, MELK, MLK1, MuSK, Ret, and TrkA using screening methods known to one of ordinary skill in the art. All of the above enzymes were screened with ATP concentrations at or close to the Km for ATP.

[3] = biological target: FGFR1 (Homo sapiens, UniProt P11362); test: FGFR1 inhibition assay; details: ATP at or close to Km
Description: as §1

[4] = biological target: MELK (Homo sapiens, UniProt Q14680); test: MELK inhibition assay; details: ATP at or close to Km
Sequence of MELK (Q14680 whole entry, species assumed): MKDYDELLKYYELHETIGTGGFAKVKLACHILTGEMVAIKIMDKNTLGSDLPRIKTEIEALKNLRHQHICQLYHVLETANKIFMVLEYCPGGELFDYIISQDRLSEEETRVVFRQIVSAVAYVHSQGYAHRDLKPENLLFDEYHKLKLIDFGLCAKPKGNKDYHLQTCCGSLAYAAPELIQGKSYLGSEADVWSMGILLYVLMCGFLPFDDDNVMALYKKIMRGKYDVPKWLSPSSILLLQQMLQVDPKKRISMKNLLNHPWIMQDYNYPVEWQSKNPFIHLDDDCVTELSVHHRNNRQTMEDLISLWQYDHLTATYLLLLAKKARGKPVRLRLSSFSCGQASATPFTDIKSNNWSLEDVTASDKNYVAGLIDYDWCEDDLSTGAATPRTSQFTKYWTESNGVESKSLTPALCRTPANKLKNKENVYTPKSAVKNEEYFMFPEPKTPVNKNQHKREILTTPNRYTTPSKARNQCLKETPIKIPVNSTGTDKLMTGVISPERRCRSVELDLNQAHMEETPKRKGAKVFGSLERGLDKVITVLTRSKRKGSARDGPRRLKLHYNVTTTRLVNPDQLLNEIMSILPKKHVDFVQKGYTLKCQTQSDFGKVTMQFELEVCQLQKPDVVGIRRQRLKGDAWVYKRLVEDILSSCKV
Description: as §1

[5] = biological target: MLK1 (Homo sapiens, UniProt P80192); test: MLK1 inhibition assay; details: ATP at or close to Km
Description: as §1

[6] = biological target: T1, MuSK (Homo sapiens, UniProt O15146); test: MuSK inhibition assay; details: ATP at or close to Km
T1 sequence (O15146 24-869): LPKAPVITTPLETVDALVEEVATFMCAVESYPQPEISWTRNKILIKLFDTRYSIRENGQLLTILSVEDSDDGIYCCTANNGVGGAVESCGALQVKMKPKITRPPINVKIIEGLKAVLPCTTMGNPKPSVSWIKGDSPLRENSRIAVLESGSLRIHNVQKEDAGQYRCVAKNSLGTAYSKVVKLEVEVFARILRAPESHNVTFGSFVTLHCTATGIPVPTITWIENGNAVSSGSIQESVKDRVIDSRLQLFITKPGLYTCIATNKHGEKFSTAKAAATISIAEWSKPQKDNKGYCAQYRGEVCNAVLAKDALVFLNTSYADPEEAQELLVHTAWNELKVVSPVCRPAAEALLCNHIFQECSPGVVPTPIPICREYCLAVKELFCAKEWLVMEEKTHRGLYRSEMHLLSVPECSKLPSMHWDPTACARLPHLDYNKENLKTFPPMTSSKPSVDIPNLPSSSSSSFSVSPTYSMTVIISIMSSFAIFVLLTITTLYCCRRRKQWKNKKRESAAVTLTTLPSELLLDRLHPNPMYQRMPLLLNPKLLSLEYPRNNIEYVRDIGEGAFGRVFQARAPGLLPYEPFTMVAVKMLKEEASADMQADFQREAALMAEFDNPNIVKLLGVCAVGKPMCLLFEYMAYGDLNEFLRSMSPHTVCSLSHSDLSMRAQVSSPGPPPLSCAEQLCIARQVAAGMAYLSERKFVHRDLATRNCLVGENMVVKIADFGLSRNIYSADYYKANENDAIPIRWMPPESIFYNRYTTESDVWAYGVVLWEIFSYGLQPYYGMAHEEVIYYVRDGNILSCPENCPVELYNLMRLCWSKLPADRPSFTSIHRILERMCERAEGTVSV
Description: as §1

[7] = biological target: Ret (Homo sapiens, UniProt P07949); test: Ret inhibition assay; details: ATP at or close to Km
Sequence of Ret (P07949 29-1114, species assumed): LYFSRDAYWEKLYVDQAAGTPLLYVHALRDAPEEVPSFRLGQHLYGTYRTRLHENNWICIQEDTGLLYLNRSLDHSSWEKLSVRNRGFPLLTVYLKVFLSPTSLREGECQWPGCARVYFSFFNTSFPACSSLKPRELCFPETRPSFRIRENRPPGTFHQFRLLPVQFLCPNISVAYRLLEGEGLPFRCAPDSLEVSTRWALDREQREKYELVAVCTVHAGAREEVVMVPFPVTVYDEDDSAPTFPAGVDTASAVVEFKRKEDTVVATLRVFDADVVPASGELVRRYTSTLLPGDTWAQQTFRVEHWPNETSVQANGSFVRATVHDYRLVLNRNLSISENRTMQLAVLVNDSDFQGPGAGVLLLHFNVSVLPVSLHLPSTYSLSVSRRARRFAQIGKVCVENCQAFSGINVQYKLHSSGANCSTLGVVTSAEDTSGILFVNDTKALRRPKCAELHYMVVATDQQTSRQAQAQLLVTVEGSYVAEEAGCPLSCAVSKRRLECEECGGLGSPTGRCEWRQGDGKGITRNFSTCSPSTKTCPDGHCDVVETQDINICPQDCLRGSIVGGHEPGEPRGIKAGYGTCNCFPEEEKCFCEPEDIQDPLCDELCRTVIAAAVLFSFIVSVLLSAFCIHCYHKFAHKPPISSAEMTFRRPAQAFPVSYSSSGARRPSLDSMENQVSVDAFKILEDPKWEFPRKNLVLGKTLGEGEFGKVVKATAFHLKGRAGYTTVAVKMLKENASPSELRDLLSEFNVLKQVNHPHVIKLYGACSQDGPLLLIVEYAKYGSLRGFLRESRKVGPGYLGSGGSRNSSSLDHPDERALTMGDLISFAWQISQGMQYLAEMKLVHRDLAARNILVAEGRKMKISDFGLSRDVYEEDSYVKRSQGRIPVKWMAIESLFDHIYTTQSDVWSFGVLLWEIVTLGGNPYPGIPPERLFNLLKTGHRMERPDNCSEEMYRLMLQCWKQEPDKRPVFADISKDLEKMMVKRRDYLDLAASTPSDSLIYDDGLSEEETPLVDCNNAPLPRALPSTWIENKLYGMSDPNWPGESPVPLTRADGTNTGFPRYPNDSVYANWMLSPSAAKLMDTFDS
Description: as §1

[8] = biological target: TrkA (Homo sapiens, UniProt P04629); test: TrkA inhibition assay; details: ATP at or close to Km
Sequence of TrkA (P04629 33-796, species assumed): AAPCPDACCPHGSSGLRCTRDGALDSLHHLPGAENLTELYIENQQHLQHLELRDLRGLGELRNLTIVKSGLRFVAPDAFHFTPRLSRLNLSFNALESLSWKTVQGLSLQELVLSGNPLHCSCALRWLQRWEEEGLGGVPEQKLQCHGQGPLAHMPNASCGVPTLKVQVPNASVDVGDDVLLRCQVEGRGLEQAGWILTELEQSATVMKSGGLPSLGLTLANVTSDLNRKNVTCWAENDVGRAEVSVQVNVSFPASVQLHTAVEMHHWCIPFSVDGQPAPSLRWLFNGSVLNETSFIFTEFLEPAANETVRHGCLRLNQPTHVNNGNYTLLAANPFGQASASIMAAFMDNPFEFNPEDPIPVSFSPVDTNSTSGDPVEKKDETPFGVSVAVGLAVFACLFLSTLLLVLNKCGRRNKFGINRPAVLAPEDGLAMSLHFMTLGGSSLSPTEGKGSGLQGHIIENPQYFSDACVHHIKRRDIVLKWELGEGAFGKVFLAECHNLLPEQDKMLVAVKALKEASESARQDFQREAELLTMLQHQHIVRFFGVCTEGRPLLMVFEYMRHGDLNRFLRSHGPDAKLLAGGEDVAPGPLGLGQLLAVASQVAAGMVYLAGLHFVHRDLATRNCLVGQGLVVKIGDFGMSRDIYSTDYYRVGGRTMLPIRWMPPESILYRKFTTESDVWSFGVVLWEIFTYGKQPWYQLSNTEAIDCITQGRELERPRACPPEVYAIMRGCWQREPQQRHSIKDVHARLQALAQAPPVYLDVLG
Description: as §1

Sequence of N-terminally truncated Abl kinase (P00519 28-1130): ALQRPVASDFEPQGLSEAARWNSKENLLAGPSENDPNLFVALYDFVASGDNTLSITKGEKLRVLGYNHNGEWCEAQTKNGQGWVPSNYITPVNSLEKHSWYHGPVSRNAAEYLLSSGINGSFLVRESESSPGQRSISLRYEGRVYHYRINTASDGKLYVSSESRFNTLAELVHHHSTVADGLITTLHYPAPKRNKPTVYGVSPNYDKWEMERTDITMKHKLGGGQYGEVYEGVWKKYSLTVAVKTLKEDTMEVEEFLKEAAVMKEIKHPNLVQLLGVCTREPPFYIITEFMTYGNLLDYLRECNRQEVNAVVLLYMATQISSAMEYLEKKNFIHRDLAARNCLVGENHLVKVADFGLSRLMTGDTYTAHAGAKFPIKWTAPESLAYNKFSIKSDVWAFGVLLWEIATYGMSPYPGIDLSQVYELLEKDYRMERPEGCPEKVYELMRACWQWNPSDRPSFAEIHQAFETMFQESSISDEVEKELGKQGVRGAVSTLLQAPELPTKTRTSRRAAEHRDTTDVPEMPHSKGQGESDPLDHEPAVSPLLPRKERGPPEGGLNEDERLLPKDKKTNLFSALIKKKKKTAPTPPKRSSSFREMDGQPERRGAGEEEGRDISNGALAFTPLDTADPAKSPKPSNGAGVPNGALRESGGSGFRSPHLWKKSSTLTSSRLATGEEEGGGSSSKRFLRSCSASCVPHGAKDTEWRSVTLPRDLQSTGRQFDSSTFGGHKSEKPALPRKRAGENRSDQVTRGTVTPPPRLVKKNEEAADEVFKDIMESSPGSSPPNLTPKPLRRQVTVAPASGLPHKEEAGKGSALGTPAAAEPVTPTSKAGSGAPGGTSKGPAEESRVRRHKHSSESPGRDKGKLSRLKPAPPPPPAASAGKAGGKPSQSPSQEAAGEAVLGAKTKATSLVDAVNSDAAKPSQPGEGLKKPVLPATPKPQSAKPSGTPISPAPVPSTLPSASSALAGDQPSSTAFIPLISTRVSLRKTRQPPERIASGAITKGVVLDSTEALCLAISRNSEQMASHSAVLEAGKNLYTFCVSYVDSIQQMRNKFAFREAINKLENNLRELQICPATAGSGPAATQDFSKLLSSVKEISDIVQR

Compound: Cc1cc(Nc2cc(N3CCC3)nc(Sc3ccc(NC(=O)c4ccccc4Cl)cc3)n2)[nH]n1 [Compound I-1, N-{4-[4-Azetidin-1-yl-6-(5-methyl-2H-pyrazol-3-ylamino)-pyrimidin-2-ylsulfanyl]-phenyl}-2-chloro-benzamide]
Ki [1]: 36 nM
Ki [2]: 12 nM
Ki [3]: 5 nM
Ki [4]: 17 nM
Ki [5]: < 18 nM
Ki [6]: 70 nM
Ki [7]: 8 nM
Ki [8]: < 6 nM

Compound: Cc1cc(Nc2cc(N3CCC3)nc(Sc3ccc(NC(=O)c4ccccc4C)cc3)n2)[nH]n1 [Compound I-5]
Ki [1]: 68 nM

Compound: Cc1cc(Nc2cc(N3CCC3)nc(Sc3ccc(NC(=O)c4ccccc4C(F)(F)F)cc3)n2)[nH]n1 [Compound I-14]
Ki [1]: 36 nM

Compound: Cc1cc(Nc2cc(N3CCC3)nc(Sc3ccc(NC(=O)c4cccc(Cl)c4F)cc3)n2)n[nH]1 [Compound I-15]
Ki [1]: 31 nM

These reach a lower Ki [1]. Values come first.

Ki [1]: 21 nM
Compound: Cc1cc(Nc2cc(N3CCC3)nc(Sc3ccc(NC(=O)c4c(Cl)cccc4Cl)cc3)n2)n[nH]1 [Compound I-11]

Ki [1]: 7 nM
Compound: Cc1cc(Nc2cc(N3CCC3)nc(Sc3ccc(NC(=O)c4c(F)cccc4F)cc3)n2)[nH]n1 [Compound I-2, N-{4-[4-Azetidin-1-yl-6-(5-methyl-2H-pyrazol-3-ylamino)-pyrimidin-2-ylsulfanyl]-phenyl}-2,6-Difluoro-benzamide]
